Measured values published in article PMC8459971, “Evaluation of the hepatotoxicity of the novel GPR40 (FFAR1) agonist CPL207280 in the rat and monkey” (PLoS ONE, 2021).
Like-named read-outs stand apart in the source and are kept apart here.

System: HepaRG spheroids
Assay: HepaRG 3D spheroids, cell and mitochondrial health markers, 14 days
Settings: for High Cell Loss (Cellular ATP) / High Cell Loss (DNA structure) / High Cell Loss (Glutathione content) / High Cell Loss (Mitochondrial mass) / High Cell Loss (Mitochondrial membrane potential) / High Cell Loss (Oxidative stress) / High Cell Loss (Spheroid count) / High Cell Loss (Spheroid size): timepoint 336; for AC50: Homo sapiens, HepaRG
[1] = HepaRG spheroid, TIMEPOINT 336, at the concentration (uM) given
[2] = HepaRG spheroid, TIMEPOINT 336, plotted value at the concentration given

- High Cell Loss (Cellular ATP) (CONC 0.4 uM, HepaRG spheroid): N
- High Cell Loss (DNA structure) (CONC 0.4 uM, HepaRG spheroid): N
- High Cell Loss (Glutathione content) (CONC 0.4 uM, HepaRG spheroid): N
- High Cell Loss (Mitochondrial mass) (CONC 0.4 uM, HepaRG spheroid): N
- High Cell Loss (Mitochondrial membrane potential) (CONC 0.4 uM, HepaRG spheroid): N
- High Cell Loss (Oxidative stress) (CONC 0.4 uM, HepaRG spheroid): N
- High Cell Loss (Spheroid count) (CONC 0.4 uM, HepaRG spheroid): N
- High Cell Loss (Spheroid size) (CONC 0.4 uM, HepaRG spheroid): N
- High Cell Loss (Cellular ATP) (CONC 1 uM, HepaRG spheroid): N
- High Cell Loss (DNA structure) (CONC 1 uM, HepaRG spheroid): N
- High Cell Loss (Glutathione content) (CONC 1 uM, HepaRG spheroid): N
- High Cell Loss (Mitochondrial mass) (CONC 1 uM, HepaRG spheroid): N
- High Cell Loss (Mitochondrial membrane potential) (CONC 1 uM, HepaRG spheroid): N
- High Cell Loss (Oxidative stress) (CONC 1 uM, HepaRG spheroid): N
- High Cell Loss (Spheroid count) (CONC 1 uM, HepaRG spheroid): N
- High Cell Loss (Spheroid size) (CONC 1 uM, HepaRG spheroid): N
- High Cell Loss (Cellular ATP) (CONC 4 uM, HepaRG spheroid): N
- High Cell Loss (DNA structure) (CONC 4 uM, HepaRG spheroid): N
- High Cell Loss (Glutathione content) (CONC 4 uM, HepaRG spheroid): N
- High Cell Loss (Mitochondrial mass) (CONC 4 uM, HepaRG spheroid): N
- High Cell Loss (Mitochondrial membrane potential) (CONC 4 uM, HepaRG spheroid): N
- High Cell Loss (Oxidative stress) (CONC 4 uM, HepaRG spheroid): N
- High Cell Loss (Spheroid count) (CONC 4 uM, HepaRG spheroid): N
- High Cell Loss (Spheroid size) (CONC 4 uM, HepaRG spheroid): N
- High Cell Loss (Cellular ATP) (CONC 10 uM, HepaRG spheroid): N
- High Cell Loss (DNA structure) (CONC 10 uM, HepaRG spheroid): N
- High Cell Loss (Glutathione content) (CONC 10 uM, HepaRG spheroid): N
- High Cell Loss (Mitochondrial mass) (CONC 10 uM, HepaRG spheroid): N
- High Cell Loss (Mitochondrial membrane potential) (CONC 10 uM, HepaRG spheroid): N
- High Cell Loss (Oxidative stress) (CONC 10 uM, HepaRG spheroid): N
- High Cell Loss (Spheroid count) (CONC 10 uM, HepaRG spheroid): N
- High Cell Loss (Spheroid size) (CONC 10 uM, HepaRG spheroid): N
- High Cell Loss (Cellular ATP) (CONC 40 uM, HepaRG spheroid): N
- High Cell Loss (DNA structure) (CONC 40 uM, HepaRG spheroid): N
- High Cell Loss (Glutathione content) (CONC 40 uM, HepaRG spheroid): N
- High Cell Loss (Mitochondrial mass) (CONC 40 uM, HepaRG spheroid): N
- High Cell Loss (Mitochondrial membrane potential) (CONC 40 uM, HepaRG spheroid): N
- High Cell Loss (Oxidative stress) (CONC 40 uM, HepaRG spheroid): N
- High Cell Loss (Spheroid count) (CONC 40 uM, HepaRG spheroid): N
- High Cell Loss (Spheroid size) (CONC 40 uM, HepaRG spheroid): N
- High Cell Loss (Cellular ATP) (CONC 100 uM, HepaRG spheroid): N
- High Cell Loss (DNA structure) (CONC 100 uM, HepaRG spheroid): N
- High Cell Loss (Glutathione content) (CONC 100 uM, HepaRG spheroid): N
- High Cell Loss (Mitochondrial mass) (CONC 100 uM, HepaRG spheroid): N
- High Cell Loss (Mitochondrial membrane potential) (CONC 100 uM, HepaRG spheroid): N
- High Cell Loss (Oxidative stress) (CONC 100 uM, HepaRG spheroid): N
- High Cell Loss (Spheroid count) (CONC 100 uM, HepaRG spheroid): N
- High Cell Loss (Spheroid size) (CONC 100 uM, HepaRG spheroid): N
- High Cell Loss (Cellular ATP) (CONC 400 uM, HepaRG spheroid): N
- High Cell Loss (DNA structure) (CONC 400 uM, HepaRG spheroid): N
- High Cell Loss (Glutathione content) (CONC 400 uM, HepaRG spheroid): N
- High Cell Loss (Mitochondrial mass) (CONC 400 uM, HepaRG spheroid): N
- High Cell Loss (Mitochondrial membrane potential) (CONC 400 uM, HepaRG spheroid): N
- High Cell Loss (Oxidative stress) (CONC 400 uM, HepaRG spheroid): N
- High Cell Loss (Spheroid count) (CONC 400 uM, HepaRG spheroid): N
- High Cell Loss (Spheroid size) (CONC 400 uM, HepaRG spheroid): N
- High Cell Loss (Cellular ATP) (CONC 1000 uM, HepaRG spheroid): N
- High Cell Loss (DNA structure) (CONC 1000 uM, HepaRG spheroid): N
- High Cell Loss (Glutathione content) (CONC 1000 uM, HepaRG spheroid): N
- High Cell Loss (Mitochondrial mass) (CONC 1000 uM, HepaRG spheroid): N
- High Cell Loss (Mitochondrial membrane potential) (CONC 1000 uM, HepaRG spheroid): N
- High Cell Loss (Oxidative stress) (CONC 1000 uM, HepaRG spheroid): N
- High Cell Loss (Spheroid count) (CONC 1000 uM, HepaRG spheroid): N
- High Cell Loss (Spheroid size) (CONC 1000 uM, HepaRG spheroid): N
Compound: CCCCS(=N)(=O)CC[C@H](N)C(=O)O (stereo partly drawn) [L-buthionine-sulfoximine]
- Cellular ATP Mean Plotted Value (CONC 0.4 uM, TIMEPOINT 336): 1.06
- DNA structure Mean Plotted Value (CONC 0.4 uM, TIMEPOINT 336): 1
- Glutathione content Mean Plotted Value (CONC 0.4 uM, TIMEPOINT 336): 0.883
- Mitochondrial mass Mean Plotted Value (CONC 0.4 uM, TIMEPOINT 336): 1.03
- Mitochondrial membrane potential Mean Plotted Value (CONC 0.4 uM, TIMEPOINT 336): 0.945
- Oxidative stress Mean Plotted Value (CONC 0.4 uM, TIMEPOINT 336): 1.02
- Spheroid count Mean Plotted Value (CONC 0.4 uM, TIMEPOINT 336): 1
- Spheroid size Mean Plotted Value (CONC 0.4 uM, TIMEPOINT 336): 0.995
- Cellular ATP Mean Plotted Value (CONC 1 uM, TIMEPOINT 336): 1.05
- DNA structure Mean Plotted Value (CONC 1 uM, TIMEPOINT 336): 1.1
- Glutathione content Mean Plotted Value (CONC 1 uM, TIMEPOINT 336): 0.886
- Mitochondrial mass Mean Plotted Value (CONC 1 uM, TIMEPOINT 336): 1.14
- Mitochondrial membrane potential Mean Plotted Value (CONC 1 uM, TIMEPOINT 336): 1
- Oxidative stress Mean Plotted Value (CONC 1 uM, TIMEPOINT 336): 0.984
- Spheroid count Mean Plotted Value (CONC 1 uM, TIMEPOINT 336): 1
- Spheroid size Mean Plotted Value (CONC 1 uM, TIMEPOINT 336): 1.06
- Cellular ATP Mean Plotted Value (CONC 4 uM, TIMEPOINT 336): 0.856
- DNA structure Mean Plotted Value (CONC 4 uM, TIMEPOINT 336): 0.816
- Glutathione content Mean Plotted Value (CONC 4 uM, TIMEPOINT 336): 0.715
- Mitochondrial mass Mean Plotted Value (CONC 4 uM, TIMEPOINT 336): 1.03
- Mitochondrial membrane potential Mean Plotted Value (CONC 4 uM, TIMEPOINT 336): 0.861
- Oxidative stress Mean Plotted Value (CONC 4 uM, TIMEPOINT 336): 1
- Spheroid count Mean Plotted Value (CONC 4 uM, TIMEPOINT 336): 1
- Spheroid size Mean Plotted Value (CONC 4 uM, TIMEPOINT 336): 0.997
- Cellular ATP Mean Plotted Value (CONC 10 uM, TIMEPOINT 336): 0.697
- DNA structure Mean Plotted Value (CONC 10 uM, TIMEPOINT 336): 1.13
- Glutathione content Mean Plotted Value (CONC 10 uM, TIMEPOINT 336): 0.689
- Mitochondrial mass Mean Plotted Value (CONC 10 uM, TIMEPOINT 336): 0.979
- Mitochondrial membrane potential Mean Plotted Value (CONC 10 uM, TIMEPOINT 336): 0.943
- Oxidative stress Mean Plotted Value (CONC 10 uM, TIMEPOINT 336): 1.04
- Spheroid count Mean Plotted Value (CONC 10 uM, TIMEPOINT 336): 1
- Spheroid size Mean Plotted Value (CONC 10 uM, TIMEPOINT 336): 0.951
- Cellular ATP Mean Plotted Value (CONC 40 uM, TIMEPOINT 336): 0.216
- DNA structure Mean Plotted Value (CONC 40 uM, TIMEPOINT 336): 1.18
- Glutathione content Mean Plotted Value (CONC 40 uM, TIMEPOINT 336): 0.15
- Mitochondrial mass Mean Plotted Value (CONC 40 uM, TIMEPOINT 336): 1.05
- Mitochondrial membrane potential Mean Plotted Value (CONC 40 uM, TIMEPOINT 336): 0.972
- Oxidative stress Mean Plotted Value (CONC 40 uM, TIMEPOINT 336): 1.22
- Spheroid count Mean Plotted Value (CONC 40 uM, TIMEPOINT 336): 1
- Spheroid size Mean Plotted Value (CONC 40 uM, TIMEPOINT 336): 0.955
- Cellular ATP Mean Plotted Value (CONC 100 uM, TIMEPOINT 336): 0.019
- DNA structure Mean Plotted Value (CONC 100 uM, TIMEPOINT 336): 1.13
- Glutathione content Mean Plotted Value (CONC 100 uM, TIMEPOINT 336): 0.119
- Mitochondrial mass Mean Plotted Value (CONC 100 uM, TIMEPOINT 336): 1.03
- Mitochondrial membrane potential Mean Plotted Value (CONC 100 uM, TIMEPOINT 336): 0.807
- Oxidative stress Mean Plotted Value (CONC 100 uM, TIMEPOINT 336): 1.13
- Spheroid count Mean Plotted Value (CONC 100 uM, TIMEPOINT 336): 1
- Spheroid size Mean Plotted Value (CONC 100 uM, TIMEPOINT 336): 0.975
- Cellular ATP Mean Plotted Value (CONC 400 uM, TIMEPOINT 336): 0.00038
- DNA structure Mean Plotted Value (CONC 400 uM, TIMEPOINT 336): 0.279
- Glutathione content Mean Plotted Value (CONC 400 uM, TIMEPOINT 336): 0.0382
- Mitochondrial mass Mean Plotted Value (CONC 400 uM, TIMEPOINT 336): 0.963
- Mitochondrial membrane potential Mean Plotted Value (CONC 400 uM, TIMEPOINT 336): 0.452
- Oxidative stress Mean Plotted Value (CONC 400 uM, TIMEPOINT 336): 0.937
- Spheroid count Mean Plotted Value (CONC 400 uM, TIMEPOINT 336): 1
- Spheroid size Mean Plotted Value (CONC 400 uM, TIMEPOINT 336): 0.965
- Cellular ATP Mean Plotted Value (CONC 1000 uM, TIMEPOINT 336): 0.000301
- DNA structure Mean Plotted Value (CONC 1000 uM, TIMEPOINT 336): 0.123
- Glutathione content Mean Plotted Value (CONC 1000 uM, TIMEPOINT 336): 0.0358
- Mitochondrial mass Mean Plotted Value (CONC 1000 uM, TIMEPOINT 336): 0.999
- Mitochondrial membrane potential Mean Plotted Value (CONC 1000 uM, TIMEPOINT 336): 0.412
- Oxidative stress Mean Plotted Value (CONC 1000 uM, TIMEPOINT 336): 0.683
- Spheroid count Mean Plotted Value (CONC 1000 uM, TIMEPOINT 336): 1
- Spheroid size Mean Plotted Value (CONC 1000 uM, TIMEPOINT 336): 0.983
- Cellular ATP MEC (HepaRG spheroid, TIMEPOINT 336): 6.84 µM
- DNA structure MEC (HepaRG spheroid, TIMEPOINT 336): 222 µM
- Glutathione content MEC (HepaRG spheroid, TIMEPOINT 336): 2.95 µM
- Mitochondrial membrane potential MEC (HepaRG spheroid, TIMEPOINT 336): 177 µM
- Oxidative stress MEC (HepaRG spheroid, TIMEPOINT 336): 658 (NS) uM
- Cellular ATP MR (% @ concentration) [1]: 100%
- DNA structure MR (% @ concentration) [1]: 89%
- Glutathione content MR (% @ concentration) [1]: 96%
- Mitochondrial membrane potential MR (% @ concentration) [1]: 58%
- Oxidative stress MR (% @ concentration) [1]: 35%
- Cellular ATP MR [2]: 0.000301
- DNA structure MR [2]: 0.123
- Glutathione content MR [2]: 0.0358
- Mitochondrial membrane potential MR [2]: 0.412
- Oxidative stress MR [2]: 0.683
- AC50 (read-out: Cellular ATP AC50): 15.5 µM
- AC50 (read-out: DNA structure AC50): 294 µM
- AC50 (read-out: Glutathione content AC50): 16.2 µM
- AC50 (read-out: Mitochondrial mass AC50): > 1000 µM
- AC50 (read-out: Mitochondrial membrane potential AC50): 511 µM
- AC50 (read-out: Oxidative stress AC50): > 1000 µM
- AC50 (read-out: Spheroid count AC50): > 1000 µM
- AC50 (read-out: Spheroid size AC50): > 1000 µM
